According to US7479377B2, “Genetic construct intracellular monitoring system” (DiscoveRx Corporation, priority 2001, dated 2009):
Peptide text beside a SMILES is read from it. * marks the point of attachment. Cbz = O=C(OCc1ccccc1)*

How the values were obtained:
IκB-ED = test: TNFα-induced IκB-ED degradation in HeLa cells (ED/EA complementation, chemiluminescence); type: cell-based; settings: TNFα at various concentrations for 30 min
Method: For transient transfection, cells were seeded into 6 well plate one day before experiment. For each well, 3 μl of Fugene 6 (Roche, Ind.) was diluted into 100_μl of serum free medium, and then 1_μg of plasmid DNA was added. The mixture was incubated at room temperature for 15 min before addition into wells dropwise. The plate was then incubated at 37° C. till the assay.
(§1) HeLa cells were seeded into 24 well plate 24 hr before transfection. 0.25 μg DNA was transfected into each well using Fugene6 (Roche) following manufacture's protocol. 24 hr after transfection, cells were subjected to treatment of TNFα (Sigma) at various concentrations for 30 min. Then the culture medium was removed, and cells were lysed in 90 μl of cell lysis buffer. […] Assay was performed in three replicates. The plate was incubated at room temperature for 30 min before addition of 15 μl chemiluminescence substrate. Plate was read 30 min after substrate addition. The untreated cells were normalized to 100% activity. […] In addition, the IκB-ED degradation was specifically linked to the upstream component activation. Also confirmed was that the IκB-ED degradation was dependent on IκB phosporylation at 32 and 36 residues, the same way as un-tagged IκB.

endogenous IL-1 receptor = molecular target: T1, endogenous IL-1 receptor (Homo sapiens, UniProt P14778); test: IL-1-induced IκB-ED degradation in HeLa cells; type: cell-based; settings: IL-1 at various concentrations for 30 min
T1 construct: endogenous in cells; host or cells: HeLa cells transiently transfected with pCMV-IkB-ED or pCMV-IkB M-ED as reporter
T1 sequence (P14778 18-569): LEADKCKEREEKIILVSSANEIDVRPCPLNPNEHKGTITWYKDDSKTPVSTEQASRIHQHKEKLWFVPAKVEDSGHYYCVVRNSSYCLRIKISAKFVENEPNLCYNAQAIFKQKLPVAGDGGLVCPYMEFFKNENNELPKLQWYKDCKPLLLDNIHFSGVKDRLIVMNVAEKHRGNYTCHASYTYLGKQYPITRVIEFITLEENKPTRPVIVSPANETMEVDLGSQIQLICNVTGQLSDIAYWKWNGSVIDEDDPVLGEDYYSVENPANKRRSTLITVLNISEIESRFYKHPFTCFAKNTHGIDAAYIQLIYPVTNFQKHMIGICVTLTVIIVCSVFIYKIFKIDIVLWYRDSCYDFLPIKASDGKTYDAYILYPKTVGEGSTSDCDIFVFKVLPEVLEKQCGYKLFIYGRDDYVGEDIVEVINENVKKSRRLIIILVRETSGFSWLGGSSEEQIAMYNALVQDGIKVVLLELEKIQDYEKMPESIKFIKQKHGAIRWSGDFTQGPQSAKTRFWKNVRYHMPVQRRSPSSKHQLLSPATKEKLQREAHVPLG
T1 sequence (Q9NPH3 21-570 partner): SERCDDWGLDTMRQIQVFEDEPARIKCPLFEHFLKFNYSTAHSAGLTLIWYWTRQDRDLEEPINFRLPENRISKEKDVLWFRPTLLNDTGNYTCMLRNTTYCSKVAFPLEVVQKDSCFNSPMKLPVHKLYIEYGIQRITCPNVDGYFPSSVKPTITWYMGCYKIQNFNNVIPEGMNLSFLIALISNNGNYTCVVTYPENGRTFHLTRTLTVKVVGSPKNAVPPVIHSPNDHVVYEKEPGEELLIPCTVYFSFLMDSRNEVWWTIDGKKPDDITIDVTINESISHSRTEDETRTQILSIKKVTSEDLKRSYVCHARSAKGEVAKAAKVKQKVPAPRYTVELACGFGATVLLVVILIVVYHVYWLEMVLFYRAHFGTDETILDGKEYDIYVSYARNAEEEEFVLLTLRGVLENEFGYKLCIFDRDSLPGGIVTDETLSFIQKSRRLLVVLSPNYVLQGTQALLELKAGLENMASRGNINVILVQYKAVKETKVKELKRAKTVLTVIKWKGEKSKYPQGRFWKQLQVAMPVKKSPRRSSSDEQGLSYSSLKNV
Method: as §1
It has been reported that IL-1 activation of cells results in NF-κB pathway activation through the induced degradation of IκB. To confirm that the ED labeled IκB in cells was able to monitor IL-1 pathway activation, HeLa cells was transiently transfected with pCMV- IκB -ED or pCMV- IκB M-ED the same way as described above in 24 well plates. Cells were then treated with IL-1 (Sigma) at various concentrations for 30 min then assayed for ED activity.

[1] = molecular target: T2, human chemokine CCR3 receptor (Homo sapiens, UniProt P51677); test: CCR3 activation leads to IkB-PL degradation in CHO-K1 cells; type: cell-based; settings: CHO-K1 cells expressing CCR3, transfected with PCMV-IkB-PL; 30 min; FIG. 16
T2 sequence (P51677 1-355): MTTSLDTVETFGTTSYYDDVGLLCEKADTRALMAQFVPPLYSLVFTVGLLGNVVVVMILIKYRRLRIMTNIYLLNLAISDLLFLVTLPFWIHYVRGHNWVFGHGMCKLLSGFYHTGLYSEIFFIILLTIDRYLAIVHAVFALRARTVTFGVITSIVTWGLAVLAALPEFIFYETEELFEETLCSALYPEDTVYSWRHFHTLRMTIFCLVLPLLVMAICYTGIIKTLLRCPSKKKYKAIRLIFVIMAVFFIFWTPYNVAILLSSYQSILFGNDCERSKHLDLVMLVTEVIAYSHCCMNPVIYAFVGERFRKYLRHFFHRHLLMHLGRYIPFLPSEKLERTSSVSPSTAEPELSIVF
Method: CHO-K1 cells stably expressing human chemokine CCR3 receptor was obtained from Euroscreen. […] Cells were seeded in 6-well plates one day before transfection. PCMV-IkB-PL was transiently transfected into CHO MC4 cells using Fugene6 following manufacturer's protocol. […] (FIG. 16).

PL-PPARγ1 = test: Proteosomal degradation of transiently expressed PL-PPAR (ED-EA complementation); type: cell-based, human; settings: for Amount of PL-PPARγ1: MG132 20 μM
Excerpt: pcDNA3.1-PL-PPAR construct was obtained in the two rounds of the cloning procedure. In the first round, the ED (55-mer) sequence was inserted into NheI and KpnI sites of the pcDNA3.1/zeo vector (Invitrogen). PPARg1 gene was obtained by PCR amplification of the human placenta cDNA library and in the second round of cloning was inserted into KpnI and NotI sites of the vector.
Proteosomal degradation of transiently expressed PL-PPAR protein was detected in NIH3T3, ECV304 and HeLa cells. Cells were transfected with pcDNA3.1-PL-PPAR and 24 hours after transfection medium was removed and cells were treated either with the vehicle (DMSO) or MG132 (proteosome inhibitor). Transfections were carried out in 6-well plates as described above. Cells were washed with PBS buffer, lysed in 480 uL of lysis buffer containing CHAPS (a mild detergent) and tested for ED-EA complementation in triplicates. Thirty microliters of the cell lysates were placed in the wells of 384-well plates. After that, 10 uL of EA solution were added and reaction of complementation was carried out for one hour at room temperature. Fifteen microliters of chemiluminescent substrate (0.4 mM Galacton-Star (Applied Biosystems, Bedford, Mass.) and 2 mg/ml Emerald II substrate (Applied Biosystems, Bedford, Mass.)) were added to the wells and the chemiluminescent signals were read using Chemiluminescent reader (Packard LumiCount, Packard Biosystems) (FIGS. 10A, 10B and 10C).
PL-PPAR expression levels were tested in the presence of increasing concentrations of MG132 (FIG. 11). The experiment was done as described above, except that indicated concentrations of MG132 were employed.

[2] = system: Hela cells stably expressing IkB-PL; test: Cell Titer-Glo cell viability assay of Hela-IkB cells with EGF; type: cell-based; settings: 0.5% FBS, serial dosage of rhEGF, 72 hours, FIG. 17
Method: Hela cells stably expressing IkB-PL were used. To confirm the cells response to EGF, the cell viability assay was performed. Hela-IkB cells were seeded in DMEM with 0.5% FBS in 96 well plate with a density of 5000 cells per well, exposing to a serial dosage of rhEGF. 72 hours later, cell viability assay was performed using the Cell Titer-Glo luminescence Cell Viability assay kit (Promega). […] (FIG. 17).

[3] = HeLa cells transfected with pCMV-IκB M-ED
[4] = HeLa cells transfected with pCMV-IκB-ED

**Q.** With TNFα as the compound, how does the “ED activity of mutant IκB M-ED” value (IκB-ED; [3]) read?
**A.** did not show a dose dependent decrease of ED activity

**Q.** And the “ED activity of IκB-ED (degradation of wild type IκB)” value (IκB-ED; [4])?
**A.** decrease the ED activity in a dose dependent manner

**Q.** How did the “Degradation of mutant IκB M-ED” value (endogenous IL-1 receptor; [3]) turn out when IL-1 was run?
**A.** resistant to IL-1 induced degradation

**Q.** What about the IκB-ED activity (endogenous IL-1 receptor; [4]) of the same compound?
**A.** decreased upon IL-1 treatment in a dose dependent manner

**Q.** How did the “IkB-PL degradation upon CCR3 activation” value [1] turn out when eotaxin was run?
**A.** activation of the chemokine receptor CCR3 leading to IkB-PL degradation

**Q.** Which “Amount of PL-PPARγ1” value (PL-PPARγ1; ECV304 cells, FIG. 10B) does the source give for `CC(C)C[C@@H](C=O)NC(=O)[C@H](CC(C)C)NC(=O)[C@H](CC(C)C)NC(=O)OCc1ccccc1` [MG132] (Cbz-Leu-Leu-Leu-aldehyde) here?
**A.** enhancement of the amount of PL-PPARγ1

**Q.** What about the “Amount of PL-PPARγ1” value (PL-PPARγ1; HeLa cells, FIG. 10C) of the same compound?
**A.** enhancement of the amount of PL-PPARγ1

**Q.** And the “Amount of PL-PPARγ1” value (PL-PPARγ1; NIH3T3 cells, FIG. 10A)?
**A.** enhancement of the amount of PL-PPARγ1

**Q.** What about the “PL-PPAR expression level with increasing concentrations of MG132” value (PL-PPARγ1; increasing concentrations of MG132, FIG. 11) of the same compound?
**A.** Dose-Dependent Increase

**Q.** “EGF (NSDSECPLSHDGYCLHDGVCMYIEALDKYACNCVVGYIGERCQYRDLKWWELR)” was tested. Which Viable cell numbers [2] did it give?
**A.** responded to the EGF induction in a dosage dependent manner
